Measured values from ChEMBL document CHEMBL5608186, “Design, synthesis and structure-activity relationships of novel non-ketolides: 9-Oxime clarithromycin featured with seven-to thirteen-atom-length diamine linkers at 3-OH” (Eur J Med Chem, 2024).
Converted amounts (≈) assume the structure as drawn.

Experiments:
Streptococcus pneumoniae [1] = test: Bactericidal activity against Streptococcus pneumoniae ATCC 49619 incubated for 16 to 20 hrs by CLSI based broth microdilution method; assay type: functional; conditions: time 16-20 hrs
Staphylococcus aureus [2] = test: Bactericidal activity against methicillin-resistant Staphylococcus aureus PU 32 harboring i-ermA gene incubated for 16 to 20 hrs by CLSI based broth microdilution method; assay type: functional; conditions: time 16-20 hrs
Streptococcus pneumoniae [3] = test: Bactericidal activity against Streptococcus pneumoniae 07P390 harboring c-erm gene incubated for 16 to 20 hrs by CLSI based broth microdilution method; assay type: functional; conditions: time 16-20 hrs
Haemophilus influenzae [4] = test: Antibacterial activity against Haemophilus influenzae ATCC 49247 incubated for 16 to 20 hrs by CLSI based broth microdilution method; assay type: functional; conditions: time 16-20 hrs
Streptococcus pyogenes [5] = test: Antibacterial activity against Streptococcus pyogenes 01-968 harboring i-ermB gene incubated for 16 to 20 hrs by CLSI based broth microdilution method; assay type: functional; conditions: time 16-20 hrs
Streptococcus pneumoniae [6] = test: Antibacterial activity against Streptococcus pneumoniae 07P390 harboring c-erm gene incubated for 16 to 20 hrs by CLSI based broth microdilution method; assay type: functional; conditions: time 16-20 hrs
Streptococcus pneumoniae [7] = test: Antibacterial activity against Streptococcus pneumoniae PU 09 harboring mef gene incubated for 16 to 20 hrs by CLSI based broth microdilution method; assay type: functional; conditions: time 16-20 hrs
Staphylococcus aureus [8] = test: Antibacterial activity against methicillin-resistant Staphylococcus aureus PU 32 harboring i-ermA gene incubated for 16 to 20 hrs by CLSI based broth microdilution method; assay type: functional; conditions: time 16-20 hrs
Streptococcus pneumoniae [9] = test: Antibacterial activity against Streptococcus pneumoniae ATCC 49619 incubated for 16 to 20 hrs by CLSI based broth microdilution method; assay type: functional; conditions: time 16-20 hrs
Streptococcus pneumoniae [10] = test: Bactericidal activity against Streptococcus pneumoniae PU 09 harboring mef gene incubated for 16 to 20 hrs by CLSI based broth microdilution method; assay type: functional; conditions: time 16-20 hrs
Staphylococcus aureus [11] = test: Selectivity ratio of MBC for methicillin-resistant Staphylococcus aureus PU 20 harboring c-ermA gene to MIC for methicillin-resistant Staphylococcus aureus PU 20 harboring c-ermA gene; assay type: functional
Staphylococcus aureus [12] = test: Antibacterial activity against methicillin-resistant Staphylococcus aureus PU 20 harboring c-ermA gene incubated for 16 to 20 hrs by CLSI based broth microdilution method; assay type: functional; conditions: time 16-20 hrs
Streptococcus pneumoniae [13] = test: Selectivity ratio of MBC for Streptococcus pneumoniae PU 09 harboring mef gene to MIC for Streptococcus pneumoniae PU 09 harboring mef gene; assay type: functional
Haemophilus influenzae [14] = test: Selectivity ratio of MBC for Haemophilus influenzae ATCC 49247 to MIC for Haemophilus influenzae ATCC 49247; assay type: functional
Streptococcus pyogenes [15] = test: Bactericidal activity against Streptococcus pyogenes 01-968 harboring i-ermB gene incubated for 16 to 20 hrs by CLSI based broth microdilution method; assay type: functional; conditions: time 16-20 hrs
Staphylococcus aureus [16] = test: Bactericidal activity against methicillin-resistant Staphylococcus aureus PU 20 harboring c-ermA gene incubated for 16 to 20 hrs by CLSI based broth microdilution method; assay type: functional; conditions: time 16-20 hrs
Streptococcus pyogenes [17] = test: Selectivity ratio of MBC for Streptococcus pyogenes 01-968 harboring i-ermB gene to MIC for Streptococcus pyogenes 01-968 harboring i-ermB gene; assay type: functional
Streptococcus pneumoniae [18] = test: Selectivity ratio of MBC for Streptococcus pneumoniae ATCC 49619 to MIC for Streptococcus pneumoniae ATCC 49619; assay type: functional
Streptococcus pneumoniae [19] = test: Selectivity ratio of MBC for Streptococcus pneumoniae 07P390 harboring c-erm gene to MIC for Streptococcus pneumoniae 07P390 harboring c-erm gene; assay type: functional
Haemophilus influenzae [20] = test: Bactericidal activity against Haemophilus influenzae ATCC 49247 incubated for 16 to 20 hrs by CLSI based broth microdilution method; assay type: functional; conditions: time 16-20 hrs
Staphylococcus aureus [21] = test: Selectivity ratio of MBC for methicillin-resistant Staphylococcus aureus PU 32 harboring i-ermA gene to MIC for methicillin-resistant Staphylococcus aureus PU 32 harboring i-ermA gene; assay type: functional
Escherichia coli [22] = test: Antibacterial activity against wild-type Escherichia coli SQ110 DTC incubated for 16 to 20 hrs by CLSI based broth microdilution method; assay type: functional; conditions: time 16-20 hrs
Escherichia coli [23] = test: Antibacterial activity against Escherichia coli SQ110 DTC harboring 23S rRNA A2058G/Gyr A Ser83Leu mutant incubated for 16 to 20 hrs by CLSI based broth microdilution method; assay type: functional; conditions: time 16-20 hrs
Escherichia coli [24] = test: Selectivity ratio of MIC for Escherichia coli SQ110 DTC harboring Gyr A Ser83Leu mutant to MIC for wild-type Escherichia coli SQ110 DTC; assay type: functional
Escherichia coli [25] = test: Selectivity ratio of MIC for Escherichia coli SQ110 DTC harboring 23S rRNA A2058G mutant to MIC for wild-type Escherichia coli SQ110 DTC; assay type: functional
[26] = Inhibition of Escherichia coli DNA supercoiling assessed as reduction in protein synthesis by firefly luciferase gene assay; assay type: functional
Escherichia coli [27] = test: Selectivity ratio of MIC for Escherichia coli SQ110 DTC harboring 23S rRNA A2058G/Gyr A Ser83Leu mutant to MIC for wild-type Escherichia coli SQ110 DTC; assay type: functional
Escherichia coli [28] = test: Antibacterial activity against Escherichia coli SQ110 DTC harboring 23S rRNA A2058G mutant incubated for 16 to 20 hrs by CLSI based broth microdilution method; assay type: functional; conditions: time 16-20 hrs
Escherichia coli [29] = test: Antibacterial activity against Escherichia coli SQ110 DTC harboring Gyr A Ser83Leu mutant incubated for 16 to 20 hrs by CLSI based broth microdilution method; assay type: functional; conditions: time 16-20 hrs
[30] = Metabolic stability in rat liver microsomes assessed as unchanged drug at 1 uM incubated upto 60 mins in presence of NADPH by LC-MS/MS analysis; assay type: ADME, Microsome; conditions: read-out: Stability
[31] = Metabolic stability in human liver microsomes assessed as half life at 1 uM incubated upto 60 mins in presence of NADPH by LC-MS/MS analysis; assay type: ADME, Microsome
[32] = Metabolic stability in human liver microsomes assessed as unchanged drug at 1 uM incubated upto 60 mins in presence of NADPH by LC-MS/MS analysis; assay type: ADME, Microsome; conditions: read-out: Stability
[33] = Metabolic stability in human liver microsomes assessed as intrinsic clearance in liver at 1 uM incubated upto 60 mins in presence of NADPH by LC-MS/MS analysis; assay type: ADME, Microsome; conditions: read-out: CLH

Compound	MBC (Streptococcus pneumoniae [1]) [µg/mL]	MBC (Staphylococcus aureus [2]) [µg/mL]	MBC (Streptococcus pneumoniae [3]) [µg/mL]	MIC (Haemophilus influenzae [4]) [µg/mL]	MIC (Streptococcus pyogenes [5]) [µg/mL]	MIC (Streptococcus pneumoniae [6]) [µg/mL]	MIC (Streptococcus pneumoniae [7]) [µg/mL]	MIC (Staphylococcus aureus [8]) [µg/mL]	MIC (Streptococcus pneumoniae [9]) [µg/mL]	MBC (Streptococcus pneumoniae [10]) [µg/mL]	Selectivity ratio (Staphylococcus aureus [11])	MIC (Staphylococcus aureus [12]) [µg/mL]	Selectivity ratio (Streptococcus pneumoniae [13])	Selectivity ratio (Haemophilus influenzae [14])	MBC (Streptococcus pyogenes [15]) [µg/mL]	MBC (Staphylococcus aureus [16]) [µg/mL]	Selectivity ratio (Streptococcus pyogenes [17])	Selectivity ratio (Streptococcus pneumoniae [18])	Selectivity ratio (Streptococcus pneumoniae [19])	MBC (Haemophilus influenzae [20]) [µg/mL]	further results
CC[C@H]1OC(=O)[C@H](C)[C@@H](OC(=O)CCN2CCN(c3cc4c(cc3F)c(=O)c(C(=O)O)cn4C3CC3)CC2)[C@H](C)[C@@H](O[C@@H]2O[C@H](C)C[C@H](N(C)C)[C@H]2O)[C@](C)(OC)C[C@@H](C)/C(=N\OCCCc2cncc(C(=O)NC)c2)[C@H](C)[C@H]2OC(=O)O[C@@]21C	0.03 (≈ 0.0252 µM)	> 256	16 (≈ 13.4 µM)	2 (≈ 1.68 µM)	4 (≈ 3.35 µM)	2 (≈ 1.68 µM)	0.03 (≈ 0.0252 µM)	64 (≈ 53.7 µM)	0.016 (≈ 0.0134 µM)	0.12 (≈ 0.101 µM)	>4	64 (≈ 53.7 µM)	4	1	> 32	> 256	>8	2	8	2 (≈ 1.68 µM)	Selectivity ratio (Staphylococcus aureus [21]): >4
CC[C@H]1OC(=O)[C@H](C)[C@@H](OC(=O)CCNCCCNc2cc3c(=O)c(C(=O)O)cn(C4CC4)c3cc2Cl)[C@H](C)[C@@H](O[C@@H]2O[C@H](C)C[C@H](N(C)C)[C@H]2O)[C@](C)(OC)C[C@@H](C)/C(=N\OC)[C@H](C)[C@H]2OC(=O)O[C@@]21C	0.5 (≈ 0.483 µM)	> 256	16 (≈ 15.5 µM)	256 (≈ 247 µM)	4 (≈ 3.87 µM)	8 (≈ 7.73 µM)	2 (≈ 1.93 µM)	32 (≈ 30.9 µM)	0.25 (≈ 0.242 µM)	2 (≈ 1.93 µM)	2	128 (≈ 124 µM)	1	1	16 (≈ 15.5 µM)	256 (≈ 247 µM)	4	2	2	256 (≈ 247 µM)	Selectivity ratio (Staphylococcus aureus [21]): >8
CC[C@H]1OC(=O)[C@H](C)[C@@H](OC(=O)CCN2CCN(c3c(F)cc4c(=O)c(C(=O)O)cn(C5CC5)c4c3OC)CC2C)[C@H](C)[C@@H](O[C@@H]2O[C@H](C)C[C@H](N(C)C)[C@H]2O)[C@](C)(OC)C[C@@H](C)/C(=N\OCC#Cc2cncc(C(=O)NC)c2)[C@H](C)[C@H]2OC(=O)O[C@@]21C (stereo partly drawn)	1 (≈ 0.811 µM)	> 256	> 128	2 (≈ 1.62 µM)	16 (≈ 13 µM)	16 (≈ 13 µM)	1 (≈ 0.811 µM)	> 256	0.5 (≈ 0.406 µM)	4 (≈ 3.25 µM)	1	32 (≈ 26 µM)	4	1	> 128	32 (≈ 26 µM)	>8	2	>8	2 (≈ 1.62 µM)	
CC[C@H]1OC(=O)[C@H](C)[C@@H](OC(=O)Cc2ccccn2)[C@H](C)[C@@H](O[C@@H]2O[C@H](C)C[C@H](N(C)C)[C@H]2O)[C@](C)(OC(=O)CCN2CCN(c3c(F)cc4c(=O)c(C(=O)O)cn(C5CC5)c4c3OC)CC2C)C[C@@H](C)CN(C)[C@H](C)[C@@H](O)[C@]1(C)O (stereo partly drawn)	1 (≈ 0.878 µM)	> 256	8 (≈ 7.02 µM)	0.5 (≈ 0.439 µM)	8 (≈ 7.02 µM)	8 (≈ 7.02 µM)	2 (≈ 1.76 µM)	128 (≈ 112 µM)	0.5 (≈ 0.439 µM)	8 (≈ 7.02 µM)	1	8 (≈ 7.02 µM)	4	1	> 64	8 (≈ 7.02 µM)	>8	2	1	0.5 (≈ 0.439 µM)	
CC[C@H]1OC(=O)[C@H](C)[C@@H](O[C@H]2C[C@@](C)(OC)[C@@H](O)[C@H](C)O2)[C@H](C)[C@@H](O[C@@H]2O[C@H](C)C[C@H](N(C)C)[C@H]2O)[C@](C)(O)C[C@@H](C)C(=O)[C@H](C)[C@@H](O)[C@]1(C)O [ERYTHROMYCIN]																					MIC (Escherichia coli [22]): 2 µg/mL (≈ 2.73 µM); MIC (Escherichia coli [23]): > 128 µg/mL; Selectivity ratio (Escherichia coli [24]): 1; Selectivity ratio (Escherichia coli [25]): >64; IC50 [26]: 1100 nM; Selectivity ratio (Escherichia coli [27]): >64; MIC (Escherichia coli [28]): > 128 µg/mL; MIC (Escherichia coli [29]): 2 µg/mL (≈ 2.73 µM)
CCOc1ccc2ccc(=O)oc2c1																					remaining at 1 h, 1 µM [30]: 1%; half-life at 1 µM [31]: 21.2 min; remaining at 1 h, 1 µM [32]: 14.1%; CLint scaled at 1 µM [33]: 58.7 mL/min/kg
CC[C@H]1OC(=O)[C@H](C)[C@@H](OC(=O)CCNCCCCCNc2cc3c(cc2F)c(=O)c(C(=O)O)cn3C2CC2)[C@H](C)[C@@H](O[C@@H]2O[C@H](C)C[C@H](N(C)C)[C@H]2O)[C@](C)(OC)C[C@@H](C)/C(=N\OC)[C@H](C)[C@H]2OC(=O)O[C@@]21C	0.125 (≈ 0.119 µM)	8 (≈ 7.65 µM)	2 (≈ 1.91 µM)	256 (≈ 245 µM)	≤ 0.008	1 (≈ 0.956 µM)	0.5 (≈ 0.478 µM)	1 (≈ 0.956 µM)	0.062 (≈ 0.0593 µM)	1 (≈ 0.956 µM)		128 (≈ 122 µM)	2	1	> 0.062	> 256	>8	2	2	256 (≈ 245 µM)	remaining at 1 h, 1 µM [30]: 98.4%; half-life at 1 µM [31]: 57.3 min; remaining at 1 h, 1 µM [32]: 42%; Selectivity ratio (Staphylococcus aureus [21]): 8; CLint scaled at 1 µM [33]: 21.8 mL/min/kg
CC[C@H]1OC(=O)[C@H](C)[C@@H](OC(=O)CCNCCCCCCNc2cc3c(cc2F)c(=O)c(C(=O)O)cn3C2CC2)[C@H](C)[C@@H](O[C@@H]2O[C@H](C)C[C@H](N(C)C)[C@H]2O)[C@](C)(OC)C[C@@H](C)/C(=N\OC)[C@H](C)[C@H]2OC(=O)O[C@@]21C	0.062 (≈ 0.0585 µM)	16 (≈ 15.1 µM)	4 (≈ 3.77 µM)	256 (≈ 241 µM)	≤ 0.008	1 (≈ 0.943 µM)	0.5 (≈ 0.472 µM)	4 (≈ 3.77 µM)	0.062 (≈ 0.0585 µM)	1 (≈ 0.943 µM)		128 (≈ 121 µM)	2	1	> 0.062	> 256	>8	1	4	256 (≈ 241 µM)	Selectivity ratio (Staphylococcus aureus [21]): 4
